# Patent publication US8961624B2, “Ortho-phenylphenol compounds as markers for liquid hydrocarbons and other fuels and oils” (Dow Global Technologies LLC, priority 2011, dated 2015)
# Experiment: not given
# Details: not given
row,Structure (SMILES),melting point
1,"CCCCCCCCCCCCOc1ccccc1-c1ccccc1 [2-(dodecyloxy)-1,1′-biphenyl]",27 to 29 °C
2,"c1ccc(-c2ccccc2OCc2ccc(COc3ccccc3-c3ccccc3)cc2)cc1 [1,4-bis(([1,1′-biphenyl]-2-yloxy)-methyl)benzene]",140 to 142 °C
3,"CCCCCCCCCCCCCCCCCCOc1ccccc1-c1ccccc1 [2-(octadecyloxy)-1,1′-biphenyl]",42 to 45 °C
4,"c1ccc(-c2ccccc2OCCCCOc2ccccc2-c2ccccc2)cc1 [1,4-bis([1,1′-biphenyl]-2-yloxy)butane]",62 to 67 °C
5,"c1ccc(-c2ccccc2OCc2ccc(-c3ccc(COc4ccccc4-c4ccccc4)cc3)cc2)cc1 [4,4′-bis(([1,1′-biphenyl]-2-yloxy)methyl)-1,1′-biphenyl]",149 to 151 °C

# Experiment: Solubility of Ex. 13 Product (cold storage of 10% w/w solution in AROMATIC 200)
# Assay type: physicochemical
# Details: 10% w/w solution in AROMATIC 200, −11° C. freezer for 2 weeks
# Procedure: Solubility of Ex. 13 Product: A solution (10% w/w) in AROMATIC 200 was prepared at room temperature. The clear solution was placed in a −11° C. freezer for 2 weeks.
row,Structure (SMILES),crystallization from solution on cold storage
1,"O=C(Oc1ccccc1-c1ccccc1)c1ccccc1 [Ex. 13 Product, [1,1′-biphenyl]-2-yl benzoate]",No visibly detectable crystallization occurred

# Experiment: Solubility in organic solvents at −10° C.
# Assay type: physicochemical
# Details: AROMATIC 200, −10° C.
row,Structure (SMILES),soluble at (concentration) in AROMATIC 200
1,"CCCCCCCCCCCCOc1ccccc1-c1ccccc1 [2-(dodecyloxy)-1,1′-biphenyl]",10%
2,"c1ccc(-c2ccccc2OCc2ccccc2COc2ccccc2-c2ccccc2)cc1 [1,2-bis(([1,1′-biphenyl]-2-yloxy)-methyl)benzene]",10%

# Same assay, conditions: DMAc, −10° C.
row,Structure (SMILES),soluble at (concentration) in DMAc
1,"c1ccc(-c2ccccc2OCCCCOc2ccccc2-c2ccccc2)cc1 [1,4-bis([1,1′-biphenyl]-2-yloxy)butane]",10%
2,"c1ccc(-c2ccccc2OCc2ccccc2COc2ccccc2-c2ccccc2)cc1 [1,2-bis(([1,1′-biphenyl]-2-yloxy)-methyl)benzene]",10%

# Same assay, conditions: NMP, −10° C.
row,Structure (SMILES),soluble at (concentration) in NMP
1,"c1ccc(-c2ccccc2OCc2ccc(COc3ccccc3-c3ccccc3)cc2)cc1 [1,4-bis(([1,1′-biphenyl]-2-yloxy)-methyl)benzene]",10%
2,"c1ccc(-c2ccccc2OCCCCOc2ccccc2-c2ccccc2)cc1 [1,4-bis([1,1′-biphenyl]-2-yloxy)butane]",10%
3,"c1ccc(-c2ccccc2OCc2ccccc2COc2ccccc2-c2ccccc2)cc1 [1,2-bis(([1,1′-biphenyl]-2-yloxy)-methyl)benzene]",10%
4,"c1ccc(-c2ccccc2OCc2ccc(-c3ccc(COc4ccccc4-c4ccccc4)cc3)cc2)cc1 [4,4′-bis(([1,1′-biphenyl]-2-yloxy)methyl)-1,1′-biphenyl]",10%

# Same assay, conditions: dipropylene glycol dimethyl ether, −10° C.
row,Structure (SMILES),soluble at (concentration) in dipropylene glycol dimethyl ether
1,"CCCCCCCCCCCCOc1ccccc1-c1ccccc1 [2-(dodecyloxy)-1,1′-biphenyl]",10%
2,"c1ccc(-c2ccccc2OCCCCOc2ccccc2-c2ccccc2)cc1 [1,4-bis([1,1′-biphenyl]-2-yloxy)butane]",10%
3,"c1ccc(-c2ccccc2OCc2ccccc2COc2ccccc2-c2ccccc2)cc1 [1,2-bis(([1,1′-biphenyl]-2-yloxy)-methyl)benzene]",10%

# Same assay, conditions: tetralin, −10° C.
row,Structure (SMILES),soluble at (concentration) in tetralin
1,"CCCCCCCCCCCCOc1ccccc1-c1ccccc1 [2-(dodecyloxy)-1,1′-biphenyl]",10%
2,"CCCCCCCCCCCCCCCCCCOc1ccccc1-c1ccccc1 [2-(octadecyloxy)-1,1′-biphenyl]",< 5%
3,"c1ccc(-c2ccccc2OCc2ccccc2COc2ccccc2-c2ccccc2)cc1 [1,2-bis(([1,1′-biphenyl]-2-yloxy)-methyl)benzene]",10%
4,"CCCCCCCCCCCCCCOc1ccccc1-c1ccccc1 [2-(tetradecyloxy)-1,1′-biphenyl]",7.5%
